The source of these data is US9540323B2 (BRISTOL-MYERS SQUIBB COMPANY, priority 2012, dated 2017).

SMILES strings stand for the structures. Structures can show the parent of a compound that is named as a salt.

For the first experiment, the target named is cloned human P2Y1 receptors (Homo sapiens (Human), UniProt P47900). Kind of experiment: Binding Assay B - Scintillation Proximity Assay (SPA) for P2Y1 binding, [33P] 2MeS-ADP. The settings on record: SPA, 0.3 nM [33P] 2MeS-ADP, Cheng-Prusoff; read-out: P2Y1 Ki (nM) using binding assay B. The method, then: Binding Assay B—Scintillation Proximity Assay (SPA) for P2Y1 Binding
Chain of cloned human P2Y1 receptors (P47900 whole entry): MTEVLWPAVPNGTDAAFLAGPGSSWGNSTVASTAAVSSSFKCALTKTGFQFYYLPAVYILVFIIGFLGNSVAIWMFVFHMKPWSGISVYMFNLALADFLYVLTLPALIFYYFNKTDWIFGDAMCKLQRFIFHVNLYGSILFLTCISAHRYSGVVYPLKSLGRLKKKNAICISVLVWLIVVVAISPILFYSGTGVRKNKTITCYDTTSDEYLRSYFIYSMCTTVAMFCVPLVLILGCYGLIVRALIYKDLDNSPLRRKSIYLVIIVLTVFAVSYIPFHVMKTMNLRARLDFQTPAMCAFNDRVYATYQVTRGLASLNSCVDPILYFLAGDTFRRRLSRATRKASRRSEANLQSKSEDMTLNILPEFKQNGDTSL
A SPA membrane binding assay was used to identify inhibitors of [^33P] […] Reactions were allowed to proceed to completion at room temperature for 1 hour followed by centrifugation of the plate for 5 min. About 40 μL of the aqueous solution was aspirated. Plates were sealed and the [^33P]
Take `CCC1(CC)CN(c2ccccc2NC(=O)Nc2ccc(C3CCCN3CC(C)C)cc2)c2c(O)cccc21` (stereo not drawn) [Example 8]: the Ki is 18.6 nM.
Still for that read-out and setting: for `CC1(C)CN(c2ccccc2NC(=O)Nc2ccc(OC(F)(F)F)cc2)c2c(O)cc(F)c(-c3ccno3)c21` [Example 261, 1-(2-(5-Fluoro-7-hydroxy-4-(isoxazol-5-yl)-3,3-dimethylindolin-1-yl)phenyl)-3-(4-(trifluoromethoxy)phenyl)urea] the value was 5.5 nM; for `CC1(C)CN(c2ccccc2NC(=O)Nc2ccc(OC(F)(F)F)cc2)c2c(O)cc(F)c(-c3ccc(C(F)(F)F)cc3)c21` [Example 222, 1-(2-(5-Fluoro-7-hydroxy-3,3-dimethyl-4-(4-(trifluoromethyl)phenyl)indolin-1-yl)phenyl)-3-(4-(trifluoromethoxy)phenyl)urea], 35 nM; for `CC1(C)CN(c2ccccc2NC(=O)Nc2csc(C(F)(F)F)n2)c2c(O)cc(F)c(-c3ccc(Cl)cc3)c21` [Example 223, 1-(2-(4-(4-Chlorophenyl)-5-fluoro-7-hydroxy-3,3-dimethylindolin-1-yl)phenyl)-3-(2-(trifluoromethyl)thiazol-4-yl)urea], 34.4 nM.

A further experiment deals with human platelet rich plasma (PRP). The experiment in a line: ADP induced platelet aggregation assay. The settings on record: Homo sapiens, Platelet, 5 min, read-out: PA IC50 (μM) @ 10 μM ADP, human PRP, 10 μM ADP, AUC at 5 minute.
For `CCC1(CC)CN(c2ccccc2NC(=O)Nc2ccc(C3CCCN3CC(C)C)cc2)c2c(O)cccc21` (stereo not drawn) [Example 8], the IC50 was determined as 0.31 µM.
Still for that read-out and setting: for `CC1(C)CN(c2ccccc2NC(=O)Nc2ccc(OC(F)(F)F)cc2)c2c(O)cc(F)c(-c3ccno3)c21` [Example 261, 1-(2-(5-Fluoro-7-hydroxy-4-(isoxazol-5-yl)-3,3-dimethylindolin-1-yl)phenyl)-3-(4-(trifluoromethoxy)phenyl)urea] the value was 1.99 µM; for `CC1(C)CN(c2ccccc2NC(=O)Nc2nc3ccc(Cl)cc3s2)c2c(O)cc(F)c(-c3nc4cc(Cl)ccc4s3)c21` [Example 156, 1-(6-Chlorobenzo[d]thiazol-2-yl)-3-(2-(4-(5-chlorobenzo[d]thiazol-2-yl)-5-fluoro-7-hydroxy-3,3-dimethylindolin-1-yl)phenyl)urea], 0.97 µM.
Same read-out and setting: for `CC1(C)CN(c2ccccc2NC(=O)Nc2ccc(OC(F)(F)F)cc2)c2c(O)c(F)cc(-c3nc4cc(Cl)ccc4s3)c21` [Example 177, 1-(2-(4-(5-Chlorobenzo[d]thiazol-2-yl)-6-fluoro-7-hydroxy-3,3-dimethylindolin-1-yl)phenyl)-3-(4-(trifluoromethoxy)phenyl)urea] the value was 2.3 µM.
Still for that read-out and setting: for `CC1(C)CN(c2ccccc2NC(=O)Nc2nc3ccc(Cl)nc3s2)c2c(O)cc(F)c(-c3ccc(Cl)s3)c21` [Example 145, 1-(5-Chlorothiazolo[5,4-b]pyridin-2-yl)-3-(2-(4-(5-chlorothiophen-2-yl)-5-fluoro-7-hydroxy-3,3-dimethylindolin-1-yl)phenyl)urea] the value was 0.13 µM.
For the compound `CC1(C)CN(c2ccccc2NC(=O)Nc2csc(Cl)n2)c2c(O)cc(F)c(-c3ccc(C(F)(F)F)cn3)c21` [Example 169, 1-(2-Chlorothiazol-4-yl)-3-(2-(5-fluoro-7-hydroxy-3,3-dimethyl-4-(5-(trifluoromethyl)pyridin-2-yl)indolin-1-yl)phenyl)urea], the IC50 came to 0.1 µM.
Same read-out and setting: for `CCC1(CC)CN(c2ccccc2NC(=O)Nc2nc3ccc(F)cc3s2)c2c(O)ccc(F)c21` [Example 32, 1-(2-(3,3-Diethyl-4-fluoro-7-hydroxyindolin-1-yl)phenyl)-3-(6-fluorobenzo[d]thiazol-2-yl)urea] the value was 0.37 µM; for `CC1(C)CN(c2ccccc2NC(=O)Nc2ccc(OC(F)(F)F)cc2)c2c(O)cc(F)c(-c3ccc(Cl)s3)c21` [Example 142, 1-(2-(4-(5-Chlorothiophen-2-yl)-5-fluoro-7-hydroxy-3,3-dimethylindolin-1-yl)phenyl)-3-(4-(trifluoromethoxy)phenyl)urea], 0.13 µM; for `CC1(C)CN(c2ccccc2NC(=O)Nc2ccc(OC(F)(F)F)cc2)c2c(O)ccc(-c3nc4ccc(Cl)cc4s3)c21` [Example 136, 1-(2-(4-(6-Chlorobenzo[d]thiazol-2-yl)-7-hydroxy-3,3-dimethylindolin-1-yl)phenyl)-3-(4-(trifluoromethoxy)phenyl)urea], 0.5 µM.
Still for that read-out and setting: for `CC1(C)CN(c2ccccc2NC(=O)Nc2ccc(OC(F)(F)F)cc2)c2c(O)cc(F)c(-c3ncc(Br)cn3)c21` [Example 166, 1-(2-(4-(5-Bromopyrimidin-2-yl)-5-fluoro-7-hydroxy-3,3-dimethylindolin-1-yl)phenyl)-3-(4-(trifluoromethoxy)phenyl)urea] the value was 1.25 µM.
Consider `CC1(C)CN(c2ccccc2NC(=O)Nc2ccc(OC(F)(F)F)cc2)c2c(O)ccc(-c3ccc(F)nc3)c21` [Example 115, 1-(2-(4-(6-Fluoropyridin-3-yl)-7-hydroxy-3,3-dimethylindolin-1-yl)phenyl)-3-(4-(trifluoromethoxy)phenyl) urea], for which the IC50 was 0.31 µM.
Still for that read-out and setting: for `COc1cncc(-c2ccc(O)c3c2C(C)(C)CN3c2ccccc2NC(=O)Nc2ccc(OC(F)(F)F)cc2)c1` [Example 118, 1-(2-(7-Hydroxy-4-(5-methoxypyridin-3-yl)-3,3-dimethylindolin-1-yl)phenyl)-3-(4-(trifluoromethoxy)phenyl) urea] the value was 0.6 µM; for `CC1(C)CN(c2ccccc2NC(=O)Nc2nc3ccc(Cl)cc3s2)c2c(O)ccc(-c3nc4cc(F)ccc4s3)c21` [Example 172, 1-(6-Chlorobenzo[d]thiazol-2-yl)-3-(2-(4-(5-fluorobenzo[d]thiazol-2-yl)-7-hydroxy-3,3-dimethylindolin-1-yl)phenyl)urea, TFA], 0.26 µM.
Still for that read-out and setting: for `CC1(C)CN(c2ccccc2NC(=O)Nc2nc3ccc(Cl)nc3s2)c2c(O)cc(F)c(-c3nc4cc(Cl)ccc4s3)c21` [Example 141, 1-(2-(4-(5-Chlorobenzo[d]thiazol-2-yl)-5-fluoro-7-hydroxy-3,3-dimethylindolin-1-yl)phenyl)-3-(5-chlorothiazolo[5,4-b]pyridin-2-yl)urea] the value was 0.55 µM; for `CC1(C)CN(c2ccccc2NC(=O)Nc2nc3ccc(Cl)cc3s2)c2c(O)cc(F)c(-c3nc4ccc(F)cc4s3)c21` [Example 139, 1-(6-Chlorobenzo[d]thiazol-2-yl)-3-(2-(5-fluoro-4-(6-fluorobenzo[d]thiazol-2-yl)-7-hydroxy-3,3-dimethylindolin-1-yl)phenyl)urea], 0.57 µM; for `CC1(C)CN(c2ccccc2NC(=O)Nc2csc(Cl)n2)c2c(O)cc(F)c(-c3nc4cc(Cl)ccc4s3)c21` [Example 167, 1-(2-(4-(5-Chlorobenzo[d]thiazol-2-yl)-5-fluoro-7-hydroxy-3,3-dimethylindolin-1-yl)phenyl)-3-(2-chlorothiazol-4-yl)urea], 0.47 µM.
On the same count and under the same terms, for `CC1(C)CN(c2ccccc2NC(=O)Nc2nc3ccc(F)cc3s2)c2c(O)ccc(-c3nc4ccc(Cl)cc4s3)c21` [Example 137, 1-(2-(4-(6-Chlorobenzo[d]thiazol-2-yl)-7-hydroxy-3,3-dimethylindolin-1-yl)phenyl)-3-(6-fluorobenzo[d]thiazol-2-yl)urea] the value was 1.06 µM; for `COC(=O)c1ccc(-c2c(F)cc(O)c3c2C(C)(C)CN3c2ccccc2NC(=O)Nc2ccc(OC(F)(F)F)cc2)cc1` [Example 244, Methyl 4-(5-fluoro-7-hydroxy-3,3-dimethyl-1-(2-(3-(4-(trifluoromethoxy)phenyl)ureido)phenyl)indolin-4-yl)benzoate], 0.3 µM.
With `CC1(C)CN(c2ccccc2NC(=O)Nc2nc3ccc(Cl)nc3s2)c2c(O)cc(F)c(-c3nc4ccc(F)cc4s3)c21` [Example 143, 1-(5-Chlorothiazolo[5,4-b]pyridin-2-yl)-3-(2-(5-fluoro-4-(6-fluorobenzo[d]thiazol-2-yl)-7-hydroxy-3,3-dimethylindolin-1-yl)phenyl)urea], the IC50 turned out to be 0.33 µM.
Same read-out and setting: for `CC1(C)CN(c2ccccc2NC(=O)Nc2nc3ccc(F)cc3s2)c2c(O)cc(F)c(-c3ccc(Cl)s3)c21` [Example 140, 1-(2-(4-(5-Chlorothiophen-2-yl)-5-fluoro-7-hydroxy-3,3-dimethylindolin-1-yl)phenyl)-3-(6-fluorobenzo[d]thiazol-2-yl)urea] the value was 0.17 µM; for `CC1(C)CN(c2ccccc2NC(=O)Nc2ccc(OC(F)(F)F)cc2)c2c(O)cc(F)c(-c3cc(C(F)(F)F)n[nH]3)c21` [Example 275, 1-(2-(5-Fluoro-7-hydroxy-3,3-dimethyl 4-(3-(trifluoromethyl)-1H-pyrazol-5-yl)indolin-1-yl)phenyl)-3-(4-(trifluoromethoxy)phenyl)urea], 5.69 µM; for `CC1(C)CN(c2ccccc2NC(=O)Nc2nc3ccc(F)cc3s2)c2c(O)cc(F)c(-c3nc4cc(Cl)ccc4s3)c21` [Example 138, 1-(2-(4-(5-Chlorobenzo[d]thiazol-2-yl)-5-fluoro-7-hydroxy-3,3-dimethylindolin-1-yl)phenyl)-3-(6-fluorobenzo[d]thiazol-2-yl)urea], 0.47 µM.
Still for that read-out and setting: for `CC1(C)CN(c2ccccc2NC(=O)Nc2ccc(OC(F)(F)F)cc2)c2c(O)ccc(-c3ccc(Cl)cn3)c21` [Example 122, 1-(2-(4-(5-Chloropyridin-2-yl)-7-hydroxy-3,3-dimethylindolin-1-yl)phenyl)-3-(4-(trifluoromethoxy)phenyl)urea] the value was 0.51 µM.

Staying with this experiment, now noted: read-out: PA IC50 (μM) @ 10 μM ADP; human PRP, 10 μM ADP, AUC at 5 minute.
As to `CC1(C)CN(c2ccccc2NC(=O)Nc2nc3ccc(F)cc3s2)c2c(O)cc(F)c(-c3ccc(F)cc3)c21` [Example 219, 1-(2-(5-Fluoro-4-(4-fluorophenyl)-7-hydroxy-3,3-dimethylindolin-1-yl)phenyl)-3-(6-fluorobenzo[d]thiazol-2-yl)urea], the IC50 was determined as 0.36 µM.
Still for that read-out and setting: for `CC1(C)CN(c2ccccc2NC(=O)Nc2csc(Cl)n2)c2c(O)cc(F)c(-c3ccc(Cl)cc3)c21` [Example 221, 1-(2-(4-(4-Chlorophenyl)-5-fluoro-7-hydroxy-3,3-dimethylindolin-1-yl)phenyl)-3-(2-chlorothiazol-4-yl)urea] the value was 0.13 µM; for `CC1(C)CN(c2ccccc2NC(=O)Nc2ccc(OC(F)(F)F)cc2)c2c(O)cc(F)c(-c3ccc(Cl)cc3)c21` [Example 220, 1-(2-(4-(4-Chlorophenyl)-5-fluoro-7-hydroxy-3,3-dimethylindolin-1-yl)phenyl)-3-(4-(trifluoromethoxy)phenyl)urea], 0.24 µM.
